Data on two compounds can be found in ChEMBL document CHEMBL1147393, “Two new modified trichothecenes from Fusarium sporotrichioides” (J Nat Prod, 1993).

A short description of the series: Cytotoxicity against syrian golden hamsters BHK21 cells. As to conditions: hamster, bhk-21. The format is cell-based, Mesocricetus auratus.

`CC(=O)O[C@]12CO[C@@H]3C=C(C)CC[C@]3(C)[C@@]1(C)C[C@@H](O)C2` showed an LC100 of 1000 ng/mL. For the compound `CC1=C[C@H]2OC[C@]3(O)C[C@H](O)C[C@]3(C)[C@@]2(C)CC1`, the LC100 was determined as 1000 ng/mL.
